Here are results for one molecule from patent publication US5010095A, “N-(W-substituted alkyl)-'-(imidazol-4-yl)alkyl)guanidine” (Cedona Pharmaceuticals B.V., priority 1986, dated 1991).

The target in assay [1] is T1, histamine H1 (guinea-pig ileum) (Cavia porcellus, UniProt P31389).
T1 construct: from tissue; host or cells: guinea-pig ileum (isolated organ)
Description: Histamine H1-activity, guinea-pig ileum. The text has this:
(§1) The values for the H1 -activity given are the mean of at least two experiments in quadruplicate, while the values for the H2 -activity result from at least two experiments in duplicate.

The target in assay [2] is T2, histamine H2 (guinea-pig gastric fundus) (Cavia porcellus, UniProt P47747).
T2 construct: acid secretion of the isolated gastric fundus of the guinea-pig; from tissue; host or cells: guinea-pig gastric fundus (isolated organ)
Description: Histamine H2-activity, acid secretion of the isolated gastric fundus of the guinea-pig.
From the text: as §1
Guinea-pig gastric acid secretion (H2)

Assay [3] deals with histamine H2. Particulars: cited from earlier work.

“Also recorded” adds a separate entry of the source.

T2 sequence (P47747 whole entry): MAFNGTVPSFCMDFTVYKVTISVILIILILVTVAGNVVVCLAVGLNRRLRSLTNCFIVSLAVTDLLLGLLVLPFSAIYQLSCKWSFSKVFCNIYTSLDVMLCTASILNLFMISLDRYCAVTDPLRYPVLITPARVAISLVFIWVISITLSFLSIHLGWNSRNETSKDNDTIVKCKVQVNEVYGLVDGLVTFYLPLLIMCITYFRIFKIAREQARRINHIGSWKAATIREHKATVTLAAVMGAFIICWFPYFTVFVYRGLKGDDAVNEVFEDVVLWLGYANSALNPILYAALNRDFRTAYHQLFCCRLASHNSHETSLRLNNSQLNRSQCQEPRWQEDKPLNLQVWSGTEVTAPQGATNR
T1 sequence (P31389 whole entry): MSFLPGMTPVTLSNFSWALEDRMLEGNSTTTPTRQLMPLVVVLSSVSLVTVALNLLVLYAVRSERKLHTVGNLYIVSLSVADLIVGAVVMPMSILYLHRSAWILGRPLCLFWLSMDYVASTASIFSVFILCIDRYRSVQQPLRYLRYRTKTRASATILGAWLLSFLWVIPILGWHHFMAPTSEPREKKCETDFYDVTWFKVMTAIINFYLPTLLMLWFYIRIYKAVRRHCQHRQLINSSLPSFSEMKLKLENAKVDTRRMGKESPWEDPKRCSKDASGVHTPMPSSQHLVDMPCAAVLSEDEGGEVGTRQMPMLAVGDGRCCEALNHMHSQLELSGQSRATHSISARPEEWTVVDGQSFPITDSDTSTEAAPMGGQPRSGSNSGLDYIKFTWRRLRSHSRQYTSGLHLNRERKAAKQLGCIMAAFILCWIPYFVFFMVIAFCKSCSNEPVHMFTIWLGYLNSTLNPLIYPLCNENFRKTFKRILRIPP

With `Cc1[nH]cnc1CSCCNC(=N)NCCCc1c[nH]cn1` [Impromidine, N-[2-(5-methylimidazol-4-ylmethylthio)ethyl]-N'-[3-(imidazol-4-yl)propyl]guanidine, reference compound], in assay [1], the Kb is 3160 nM. This molecule also had an EC50 in assay [2] of 3.16 nM. Further, the Emax in assay [2] (guinea pig, read-out: Histamine H2-activity, gastric fundus, α (intrinsic activity)) is 100%. The “potency relative to histamine” value in assay [3] (dependent on the used test system, Proc. VIIIth Internat. Symp. Med. Chem. Uppsala 1985) was 5-800 times. The “stimulation of gastric acid secretion, in words” value in assay [3] (drawback for clinical use) was “relatively high potency in stimulating the gastric acid secretion”. In addition, the “histamine H2-agonist character, in words” value in assay [3] (literature) is “specific and the most potent histamine H2 -agonist; also recorded: either behaves like a partial or like a complete agonist”.
